Columns and labels:
[1] = system: vaginal and clitoral blood flow; experiment: Anaesthetised rabbit model of sexual arousal: pelvic nerve stimulated genital blood flow by laser Doppler; format: in vivo, Female New Zealand rabbits
Source text: Animal Model of arousal response
We have developed an animal model that mimics the physiological arousal response observed during female sexual arousal and directly reflects the clinical data obtained in human volunteers. The model uses Laser Doppler technologies to record small changes in vaginal and clitoral blood flow induced by pelvic nerve stimulation or vasoactive neurotransmitters. During sexual arousal there is an increase in genital blood flow resulting from increased innervation from the pelvic nerve. This increase in genital blood flow leads to increased genital lubribriation and genital sensitivity which are associated with sexual arousal. The major cause of FSAD is decreased genital blood flow and this manifests itself as reduced vaginal, labial and clitoral engorgement. Treatment of women with FSAD is achievable by restoration of the normal sexual arousal response. This can be achieved by enhancing genital blood flow.
The title product from Example 29 was administered using this animal model according to the following protocol to show an enhancement in pelvic nerve stimulated increases in genital blood flow in the rabbit.
Two routes of administration were studied: a) intravenous administration and b) topical administration. Both studies used the anesthatised rabbit model according to the following protocol.
Female New Zealand rabbits (˜2.5 kg) were pre-medicated with a combination of Medetomidine (Domitor®) 0.5 ml/kg i.m., and Ketamine (Vetalar®) 0.25 ml/kg i.m. whilst maintaining oxygen intake via a face mask. The rabbits were tracheotomised using a Portex™ uncuffed endotracheal tube 3 ID, connected to ventilator and maintained a ventilation rate of 30-40 breaths per minute, with an approximate tidal volume of 18-20 ml, and a maximum airway pressure of 10 cm H2O. Anaesthesia was then switched to Isoflurane and ventilation continued with O2 at 2 l/min. The right marginal ear vein was cannulated using a 23 G or 24 G catheter, and Lactated Ringer solution perfused at 0.5 ml/min. The rabbit was maintained at 3% Isoflurane during invasive surgery, dropping to 2% for maintenance anaesthesia.
A ventral midline incision was made into the abdominal cavity. The incision was about 5 cm in length just above the pubis. The fat and muscle was bluntly dissected away to reveal the hypogastric nerve which runs down the body cavity. It was essential to keep close to the side curve of the pubis wall in order to avoid damaging the femoral vein and artery which lie above the pubis. The sciatic and pelvic nerves lie deeper and were located after further dissection on the dorsal side of the rabbit. Once the sciatic nerve is identified, the pelvic nerve was easily located. The term pelvic nerve is loosely applied; anatomy books on the subject fail to identify the nerves in sufficient detail. However, stimulation of the nerve causes an increase in vaginal and clitoral blood flow, and innervation of the pelvic region. The pelvic nerve was freed away from surrounding tissue and a Harvard bipolar stimulating electrode was placed around the nerve. The nerve was slightly lifted to give some tension, then the electrode was secured in position. Approximately 1 ml of light paraffin oil was placed around the nerve and electrode. […]
A frequency response curve was determined at the start of each experiment in order to determine the optimum frequency to use as a sub-maximal response, normally 4 Hz. […]

[2] = 1.0 mg/kg iv bolus infusion, submaximal stimulation (eg 4 Hz), anaesthetised rabbit, n=3

melting point	SMILES	increase in clitoral blood flow (peak, pelvic nerve stimulated) [1, 2]	increase in vaginal blood flow (peak, pelvic nerve stimulated) [1, 2]	pelvic nerve stimulated increases in genital blood flow ([1]; both intravenous and topical administration, clinically relevant doses, rabbit)	peak pelvic nerve stimulated increase in vaginal blood flow ([1]; intravaginal topical application (0.2 mg/ml printed), vs mean control flow increases, n=4, P<0.001)	basal (non-stimulated) vaginal blood flow ([1]; intravaginal topical application, compared to control flow, n=4)
–	CCC[C@H](CC1(C(=O)Nc2nnc(CC)s2)CCCC1)C(=O)O [Example 29, (2R)-2-[(1-{[(5-Ethyl-1,3,4-thiadiazol-2-yl)amino]carbonyl}cyclopentyl)methyl]pentanoic acid]	131%	92%	significantly enhanced	significantly enhanced	no effect
80 to 85 °C	O=C(O)C(CCc1ccccc1)CC1(C(=O)Nc2cccnc2)CCCC1 (stereo not drawn) [Example 41, 4-Phenyl-2-({1-[(3-pyridinylamino)carbonyl]cyclopentyl}methyl)butanoic acid]	–	–	–	–	–
